Assay results as given in patent US20140303109A1 (priority 2010, published 2014).

Experiments:
[1] = oral 1 g/kg body wt., mouse; cited from earlier work
[2] = system: AsPC-1-GTR and MIAPaCa-2-GTR cells; experiment: Clonogenic assay, gemcitabine/tarceva-resistant lines; format: cell-based, human; conditions: 4 μmol/L CUR or CDF, 20 nmol/L GEM
[3] = system: NF-κB DNA binding activity; experiment: EMSA for NF-κB DNA binding activity in tumor tissue; format: in vivo, mice; conditions: MIA PaCa-2 tumors
Protocol: Nuclear extracts were prepared from tumor tissue induced by the MIA PaCa-2 cells using an homogenizer with 400 μl of ice cold lysis buffer extracted as described earlier. EMSA was performed using the Odyssey Infrared Imaging System with NF-κβ 1RDye labeled oligonucleotide from LI-COR, Inc. (Lincoln, Nebr.). An NF-Kβ competition control study was conducted using unlabeled NF-Kβ consensus oligonucleotide. The samples were loaded and run at 30 mA for 1 hour. The gel was scanned using Odyssey Infrared Imaging System (LI-COR, Inc.).

miR-21 = experiment: Real-time RT-PCR of miR-21 in PC cell lines; format: cell-based, human; conditions: 72 h; BxPC-3, MIAPaCa-E, MIAPaCa-M
Protocol: The expression of miRNAs (miRNA-200a, miR-200b, and miR-21) in all three pancreatic cancer cell lines, was measured with a TaqMan MicroRNA Assay kit (Applied Biosystems, Carlsbad, Calif.) following the manufacturer's protocol. […] Total RNA was extracted, and 5 ng of each sample were reverse-transcribed in a method described by Li, et al., Cancer Res., Vol. 69, pages 6704-6712 (2009). Real-time RT-PCR reactions were then carried out in a total volume of 25 μl reaction mixture, as described by Li, et al., id., using Smart Cycler II (Cepheid, Sunnyvale, Calif.). The data were analyzed using Ct method and were normalized by RNU6B expression in each sample.

MIAPaCa-2 tumors = experiment: MIAPaCa-2 subcutaneous xenograft tumor model; format: in vivo, mice; conditions: CDF or CUR 5 mg/mouse/day intragastric 12 days; GEM 1 mg/mouse i.v. x3
Protocol: Female CB17 SCID mice 4 wks old were purchased from Taconic Farms (Germantown, N.Y.). Small fragments of the MIAPaCa-2 xenograft were implanted subcutaneously and bilaterally into mice. […] Tumor measurements and changes in weight were performed and tissue was stored at −70° C. for RNA and protein extraction.

BxPC-3 cells = experiment: MTT cell viability, BxPC-3 (gemcitabine-sensitive); format: cell-based, human; conditions: 0.1-4.0 μMol/L
Protocol: Cell growth was assessed by an MTT assay in a manner similar to that as described above. The color intensity was measured by a TECAN microplate fluorometer (Tecan Group, LTD, Research Triangle Park, N.C.) at 595 nm.

CD44 and EpCAM = CD44 and EpCAM immunostaining of pancreatospheres; format: cell-based, human; conditions: AsPC-1 and AsPC-1-GTR, 7 days
Protocol: Single cell suspensions of AsPC-1 and AsPC-1-GTR were plated into sphere formation media as previously described. After 7 days, the pancreatospheres were collected, washed, and fixed. The CSC biomarkers, CD44 and EpCAM, were used for immunostaining and the pancreatospheres were examined with confocal microscopy.

COX-2, PTEN expression = experiment: Western blot of COX-2 and PTEN in tumor remnants; format: in vivo, mice; conditions: MIAPaCa-2 tumors
Protocol: COX-2, PTEN, and β-actin expression was determined by Western blot.

[4] = system: BxPC-3 pancreatic cancer cells; experiment: MTT assay, BxPC-3 cell growth, 72 h; format: cell-based, human; conditions: various concentrations
Protocol: The concentrations were 10 μM, 20 μM, and 30 μM. After aspiration of growth medium, (3-(4,5-Dimethylthiazol-2-yl)-2,5-diphenyltetrazolium bromide (MTT; 1 mg/ml) was added to the cell cultures, followed by incubation for 3 hours at 37° C. After the cells were crystallized, the MTT was removed and dimethylsulfoxide (DMSO) was added to dissolve the metabolized MTT product. The absorbance was then measured on a Wallac Victor^3 1420 Multi-label counter at 540 nm.
The results are shown on FIG. 5 which is a series of four bar graphs, labeled FIG. 5A through FIG. 5D.

[5] = system: AsPC-1, AsPC1-GTR, MIAPaCa-2, and MIAPaCa-2-GTR cell lines; experiment: MTT cell survival and combination index, four PC lines; format: cell-based, human; conditions: 72 h, 4 μMol/L
Text: Untreated control has been assigned a value of 100%. The p value shown represents comparisons between a single agent t and their combinations by using a paired t-test. A combination Index (CI)<1 for the CDF and GEM combination indicates synergism. The results are shown on FIGS. 17A to 17D.

SMILES	Cmax [1] [ng/mL]	reduction of clonogenicity [2] [%]	NF-κβ activation in tumor tissue [3]	expression of miR-21 (miR-21)	tumor growth (MIAPaCa-2 tumors)	cell viability (BxPC-3 cells)	expression of CD44 and EpCAM in pancreatospheres (CD44 and EpCAM)	expression of PTEN in tumor remnants (COX-2, PTEN expression)	cell growth inhibition [4]	cell survival [5]
COc1cc(/C=C/C(=O)CC(=O)/C=C/c2ccc(O)c(OC)c2)ccc1O [CUR, (1E,6E)-1,7-bis(4-hydroxy-3-methoxyphenyl)hepta-1,6-diene-3,5-dione, reference compound]	220									
COc1cc(/C=C/C(=O)C(=Cc2ccc(F)c(F)c2)C(=O)/C=C/c2ccc(O)c(OC)c2)ccc1O [CDF, (1E,6E)-1,7-bis(4-hydroxy-3-methoxyphenyl)hepta-1,6-diene{4(3,4 difluorobenzaldehyde)}-3,5-dione]		80	down-regulated NF-κβ activation	significant reduction in the expression of miR-21	significantly inhibited tumor growth	significant reduction in cell viability	decreased the expression of CD44 and EpCAM in pancreatospheres	up-regulated	superior to CUR in inducing cell growth inhibition	much more significant reduction of cell survival in PC cells than GEM, CUR, or their combination
